We go through two compounds from patent US6878253B2, “Chiral separation of benzoporphyrin derivative mono-and di-acids by laser-induced fluorescence capillary electrophoresis” (The University of British Columbia, priority 1998, dated 2005).

The nature of data set [1]: Extinction coefficient determination in borate/cholate buffer. The class given is physicochemical. The settings on record: 430 nm; 300 mM borate, 10% acetonitrile, 25 mM sodium cholate, pH 9.2. The source says:
The compounds have the same chromophore and identical absorption spectra (FIG. 3a) with a characteristic major broad peak in the Soret region (420 nm) and several other peaks at longer wavelengths. The most interesting long wavelength peak, in terms of applications in PDT, is the peak at 688 nm (in organic solvents). […] An emission spectrum is also shown in FIG. 3b with a characteristic emission at about 692 nm, near red (Q-band), with a Stokes shift of ˜4 nm for fluorescence. […] As such, there is no gain in photo absorption by use of any particular BPD enantiomer.

For the next data set, the system named is skin. The settings on record: versus Photofrin (Richter et al. (1987)); cited from earlier work.
The nature of data set [2]: Decomposition (hydrolysis) in electrophoresis buffers. The class given is physicochemical. The settings on record: in one hour at pH 9.2. As for the experimental part: Separation by CE is also affected by the buffering system used. Buffer type, concentration, ionic strength, and pH are all parameters to consider, and a variety of buffers may be used. Buffer solutions of pH 11.04, 100 mM 3-(cyclohexylamino)-1-propanesulfonic acid (CAPS); pH 6.76, 30 mM ammonium acetate; pH 2.76, 50 mM citric acid; and pH 9.2, 100 mM borate were tested as electrolytes. […] This was followed by either separation shut down or excess spiking and signal noise. In citric acid buffer the BPD enantiomers were protonated at the propionic side chain, defeating separation based on the deprotonated state. Since the effective charge(s) are the same for BPD-DA and BPD-MA, the electrophoretic mobility difference is normally very small. Also, at […], the EOF was very small and this caused the migration time to become overly long. The result was very poor signal separation due to extensive diffusion.
With borate buffer at about pH 9.2, however, the BPD-DA and BPD-MA enantiomers were completely separated. This, in combination with the ability of borate to form a very stable buffer solution with high buffering capacity and its ability to be used in very high concentrations, made it a preferred choice for use in the instant separation methods. Borate has also been used in other separation systems (Consden et al. (1952); Boeseken (1949); and Landers et al. (1992)). […]

For the compound `C=Cc1c(C)c2cc3nc(cc4[nH]c(cc5nc(cc1[nH]2)C(C)=C5CCC(=O)O)c(CCC(=O)O)c4C)[C@@]1(C)C3=CC=C(C(=O)OC)[C@H]1C(=O)OC` [BPD-DA, benzoporphyrin derivative diacid], the Extinction coefficient in data set [1] was 75,200 M^−1 cm^−1.
As to “benzoporphyrin derivative monoacid ring A [BPD-MA]”, in the data set with skin, the skin phototoxicity result is “lower skin phototoxicity than Photofrin”. The Extinction coefficient in data set [1] is 61,000 M^−1 cm^−1. Moreover, the decomposition entry in data set [2] is reported as “less than 1%”.
